Reference: patent US11731943B2, “Therapeutic compounds, compositions and methods of use thereof” (priority 2016, dated 2023)
Like-named read-outs stand apart in the source and are kept apart here.

Experiments:
[1] = biological target: isolated recombinant JAK2 kinase domain (Homo sapiens (Human), UniProt O60674); assay: JAK2 enzyme assay (Caliper LabChip, Ki); format: biochemical
Method: (§1) JAK Enzyme Assays were carried out as follows:
The activity of the isolated recombinant JAK1 and JAK2 kinase domain was measured by monitoring phosphorylation of a peptide derived from JAK3 ([…] fluorescently labeled on the N-terminus with 5-carboxyfluorescein) using the Caliper LabChip® technology (Caliper Life Sciences, Hopkinton, Mass.). […] Reactions were incubated at 22° C. in 384-well polypropylene microtiter plates for 30 minutes and then stopped by addition of 25 μL of an EDTA containing solution (100 mM HEPES buffer (pH 7.2), 0.015% Brij-35, 150 mM EDTA), resulting in a final EDTA concentration of 50 mM. After termination of the kinase reaction, the proportion of phosphorylated product was determined as a fraction of total peptide substrate using the Caliper LabChip® 3000 according to the manufacturer's specifications.

[2] = biological target: isolated recombinant JAK1 kinase domain (Homo sapiens (Human), UniProt P23458); assay: JAK1 enzyme assay (Caliper LabChip, Ki); format: biochemical
Method: as §1
The activity of the isolated recombinant JAK1 and JAK2 kinase domain was measured by monitoring phosphorylation of a peptide derived from JAK3 (Val-Ala-Leu-Val-Asp-Gly-Tyr-Phe-Arg-Leu-Thr-Thr, fluorescently labeled on the N-terminus with 5-carboxyfluorescein) using the Caliper LabChip® technology (Caliper Life Sciences, Hopkinton, Mass.). […] Reactions were incubated at 22° C. in 384-well polypropylene microtiter plates for 30 minutes and then stopped by addition of 25 μL of an EDTA containing solution (100 mM HEPES buffer (pH 7.2), 0.015% Brij-35, 150 mM EDTA), resulting in a final EDTA concentration of 50 mM. After termination of the kinase reaction, the proportion of phosphorylated product was determined as a fraction of total peptide substrate using the Caliper LabChip® 3000 according to the manufacturer's specifications. Ki values were then determined using the Morrison tight binding model (Morrison, J. F., Biochim. Biophys. Acta. 185:269-296 (1969); William, J. W. and Morrison, J. F., Meth. Enzymol., 63:437-467 (1979)) modified for ATP-competitive inhibition [Ki=Ki,app/(1+[ATP]/Km,app)].

Sequence of isolated recombinant JAK1 kinase domain (P23458 875-1153): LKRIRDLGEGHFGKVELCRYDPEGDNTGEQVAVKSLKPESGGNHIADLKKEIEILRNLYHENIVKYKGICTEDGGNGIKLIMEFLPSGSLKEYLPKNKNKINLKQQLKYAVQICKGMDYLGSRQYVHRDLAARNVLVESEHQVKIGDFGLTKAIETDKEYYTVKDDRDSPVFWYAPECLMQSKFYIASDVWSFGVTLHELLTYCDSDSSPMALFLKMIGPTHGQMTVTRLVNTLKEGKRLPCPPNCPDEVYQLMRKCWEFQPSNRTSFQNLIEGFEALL
Sequence of isolated recombinant JAK2 kinase domain (O60674 849-1124): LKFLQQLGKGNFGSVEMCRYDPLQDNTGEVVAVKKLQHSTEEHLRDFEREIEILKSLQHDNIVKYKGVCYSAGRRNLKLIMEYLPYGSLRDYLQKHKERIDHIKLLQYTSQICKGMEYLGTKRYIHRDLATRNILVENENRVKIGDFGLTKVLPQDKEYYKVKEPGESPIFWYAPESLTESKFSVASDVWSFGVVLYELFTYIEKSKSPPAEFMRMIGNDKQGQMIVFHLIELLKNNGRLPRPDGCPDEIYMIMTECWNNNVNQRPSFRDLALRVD

Row | Structure (SMILES) | Ki [1] [nM] | Ki [2] [nM] | Ki ([2]; read-out: JAK1 Ki) [nM]
1 | N#CC[C@]1(n2cc(C(N)=O)c(NC(=O)C3CC3)n2)CC[C@@H](N2CC3(CCC3)C2)CC1 [Example 108] | 205 | 466 | –
2 | N#CC[C@]1(n2cc(C(N)=O)c(NC(=O)C3CC3)n2)CC[C@H](NCc2ccccc2)CC1 [Example 109] | > 319 | > 562 | –
3 | N#CC[C@]1(n2cc(C(N)=O)c(NC(=O)C3CC3)n2)CC[C@@H](NCc2ccccc2)CC1 [Example 110] | 254 | 5.3 | –
4 | N#CC[C@]1(n2cc(C(N)=O)c(NC(=O)C3CC3)n2)CC[C@H](NCc2ccccc2F)CC1 [Example 111] | 87.3 | 9.5 | –
5 | N#CC[C@]1(n2cc(C(N)=O)c(NC(=O)C3CC3)n2)CC[C@@H](NCc2ccccc2F)CC1 [Example 112] | > 319 | > 562 | –
6 | N#CC[C@]1(n2cc(C(N)=O)c(NC(=O)C3CC3)n2)CC[C@H](NCc2cccc(F)c2)CC1 [Example 113] | 187 | 14.4 | –
7 | N#CC[C@]1(n2cc(C(N)=O)c(NC(=O)C3CC3)n2)CC[C@@H](NCc2cccc(F)c2)CC1 [Example 114] | > 319 | > 562 | –
8 | N#CC[C@]1(n2cc(C(N)=O)c(NC(=O)C3CC3)n2)CC[C@H](NCc2ccc(F)cc2)CC1 [Example 115] | 300 | 21.9 | –
9 | N#CC[C@]1(n2cc(C(N)=O)c(NC(=O)C3CC3)n2)CC[C@@H](NCc2ccc(F)cc2)CC1 [Example 116] | > 319 | 164 | –
10 | N#CC[C@]1(n2cc(C(N)=O)c(NC(=O)C3CC3)n2)CC[C@@H](NCc2ccccc2Cl)CC1 [Example 118] | > 319 | > 562 | –
11 | N#CC[C@]1(n2cc(C(N)=O)c(NC(=O)C3CC3)n2)CC[C@H](NCc2ccc(Cl)cc2)CC1 [Example 119] | > 319 | 437 | –
12 | N#CC[C@]1(n2cc(C(N)=O)c(NC(=O)C3CC3)n2)CC[C@@H](NCc2ccc(Cl)cc2)CC1 [Example 120] | 115 | 12 | –
13 | N#CC[C@]1(n2cc(C(N)=O)c(NC(=O)C3CC3)n2)CC[C@H](NCc2ccc(C#N)cc2)CC1 [Example 121] | 282 | 14.6 | –
14 | N#CC[C@]1(n2cc(C(N)=O)c(NC(=O)C3CC3)n2)CC[C@@H](NCc2ccc(C#N)cc2)CC1 [Example 122] | > 319 | 562 | –
15 | N#CC[C@]1(n2cc(C(N)=O)c(NC(=O)C3CC3)n2)CC[C@H](NCc2cccc(C#N)c2)CC1 [Example 123] | > 319 | > 562 | –
16 | N#CC[C@]1(n2cc(C(N)=O)c(NC(=O)C3CC3)n2)CC[C@@H](NCc2cccc(C#N)c2)CC1 [Example 124] | 273 | 32.7 | –
17 | N#CC[C@]1(n2cc(C(N)=O)c(NC(=O)C3CC3)n2)CC[C@H](NCCC(F)(F)F)CC1 [Example 125] | 78.3 | 7.3 | –
18 | N#CC[C@]1(n2cc(C(N)=O)c(NC(=O)C3CC3)n2)CC[C@@H](NCCC(F)(F)F)CC1 [Example 126] | > 319 | 188 | –
19 | N#CC[C@]1(n2cc(C(N)=O)c(NC(=O)C3CC3)n2)CC[C@H](NCc2ccc(-c3ccccc3)cc2)CC1 [Example 127] | > 319 | > 562 | –

Row | Structure (SMILES) | Ki [1] [nM] | Ki [2] [nM] | Ki ([2]; read-out: JAK1 Ki) [nM]
20 | CN(CC(F)(F)F)[C@H]1CC[C@@](CC#N)(n2cc(C(N)=O)c(NC(=O)C3CC3)n2)CC1 [Example 130] | > 319 | > 562 | –
21 | COC1(C(F)(F)F)CN([C@H]2CC[C@](CC#N)(n3cc(C(N)=O)c(NC(=O)C4CC4)n3)CC2)C1 [Example 132] | > 319 | – | 217
22 | CC(C)OC1(C(F)(F)F)CN([C@H]2CC[C@](CC#N)(n3cc(C(N)=O)c(NC(=O)C4CC4)n3)CC2)C1 [Example 136] | > 319 | – | 463
23 | N#CC[C@]1(n2cc(C(N)=O)c(NC(=O)C3CC3)n2)CC[C@H](N2CC(O)(C(F)(F)F)C2)CC1 [Example 138, 1-[1-(cyanomethyl)-4-[3-hydroxy-3-(trifluoromethyl)azetidin-1-yl]cyclohexyl]-3-(cyclopropanecarbonylamino) pyrazole-4-carboxamide] | > 319 | – | > 562
24 | CN(C)C(=O)c1ccccc1-c1ccc(CN2CCC(CC#N)(n3cc(C(N)=O)c(NC(=O)C4CC4)n3)CC2)cc1 [Example 144, 1-[4-(cyanomethyl)-1-[[4-[2-(dimethylcarbamoyl)phenyl]phenyl]methyl]-4-piperidyl]-3-(cyclopropanecarbonylamino) pyrazole-4-carboxamide] | 63.5 | – | 8.8
25 | N#CCC1(n2cc(C(N)=O)c(NC(=O)C3CC3)n2)CCN(Cc2ccc(-c3cccc(C(F)(F)F)c3)cc2)CC1 [Example 150, 1-[4-(cyanomethyl)-1-[[4-[3-(trifluoromethyl)phenyl]phenyl]methyl]-4-piperidyl]-3-(cyclopropanecarbonylamino) pyrazole-4-carboxamide] | 208 | – | 15.9
26 | N#CCC1(n2cc(C(N)=O)c(NC(=O)C3CC3)n2)CCN(Cc2ccc(-c3cccnc3)cc2)CC1 [Example 158] | 39.4 | – | 8
27 | N#CCC1(n2cc(C(N)=O)c(NC(=O)C3CC3)n2)CCN(Cc2ccc(-c3ccncc3)cc2)CC1 [Example 159, 1-[4-(cyanomethyl)-1-[[4-(4-pyridyl)phenyl]methyl]-4-piperidyl]-3-(cyclopropanecarbonylamino) pyrazole-4-carboxamide] | 101 | – | 19
28 | N#CC[C@]1(n2cc(C(N)=O)c(NC(=O)C3CC3)n2)CCN(Cc2ccccc2)C[C@H]1F [Example 165] | 211 | – | 27.1
29 | N#CCC1(n2cc(C(N)=O)c(NC(=O)C3CC3)n2)CCN(C(=O)C2CC(F)(F)C2)CC1 [Example 168, 1-[4-(cyanomethyl)-1-(3,3-difluorocyclobutanecarbonyl)-4-piperidyl]-3-(cyclopropanecarbonylamino) pyrazole-4-carboxamide] | 93.3 | – | 7.5
30 | N#CCC1(n2cc(C(N)=O)c(NC(=O)C3CC3)n2)CCN(C(=O)CC(F)(F)F)CC1 [Example 170, 1-[4-(cyanomethyl)-1-(3,3,3-trifluoropropanoyl)-4-piperidyl]-3-(cyclopropanecarbonylamino) pyrazole-4-carboxamide] | 70.9 | – | 6.7
31 | CC(F)(F)C(=O)N1CCC(CC#N)(n2cc(C(N)=O)c(NC(=O)C3CC3)n2)CC1 [Example 171, 1-[4-(cyanomethyl)-1-(2,2-difluoropropanoyl)-4-piperidyl]-3-(cyclopropanecarbonylamino) pyrazole-4-carboxamide] | 30.3 | – | 6.6
32 | N#CC[C@]1(n2cc(C(N)=O)c(NC(=O)C3CC3)n2)CC[C@H](NC2CC(F)(F)C2)CC1 [Example 172, 1-[1-(cyanomethyl)-4-[(3,3-difluorocyclobutyl)amino]cyclohexyl]-3-(cyclopropanecarbonylamino) pyrazole-4-carboxamide] | > 319 | > 562 | –
33 | N#CC[C@]1(n2cc(C(N)=O)c(NC(=O)C3CC3)n2)CC[C@@H](NC2CC(F)(F)C2)CC1 [Example 173, 1-[1-(cyanomethyl)-4-[(3,3-difluorocyclobutyl)amino]cyclohexyl]-3-(cyclopropanecarbonylamino) pyrazole-4-carboxamide] | 71.3 | 8.7 | –
34 | N#CC[C@]1(n2cc(C(N)=O)c(NC(=O)C3CC3)n2)CC[C@H](NC2CCC(F)(F)CC2)CC1 [Example 174, 1-[1-(cyanomethyl)-4-[(4,4-difluorocyclohexyl)amino]cyclohexyl]-3-(cyclopropanecarbonylamino) pyrazole-4-carboxamide] | > 319 | > 562 | –
35 | N#CC[C@]1(n2cc(C(N)=O)c(NC(=O)C3CC3)n2)CC[C@@H](NC2CCC(F)(F)CC2)CC1 [Example 175, 1-[1-(cyanomethyl)-4-[(4,4-difluorocyclohexyl)amino]cyclohexyl]-3-(cyclopropanecarbonylamino) pyrazole-4-carboxamide] | 321 | 14.1 | –
36 | N#CC[C@]1(n2cc(C(N)=O)c(NC(=O)C3CC3)n2)CC[C@H](N2CC(F)(F)C2)CC1 [Example 179, 1-[1-(cyanomethyl)-4-(3,3-difluoroazetidin-1-yl)cyclohexyl]-3-(cyclopropanecarbonylamino) pyrazole-4-carboxamide] | > 319 | > 562 | –
37 | N#CC[C@]1(n2cc(C(N)=O)c(NC(=O)C3CC3)n2)CC[C@H](N2CC(F)C2)CC1 [Example 181, 1-[1-(cyanomethyl)-4-(3-fluoroazetidin-1-yl)cyclohexyl]-3-(cyclopropanecarbonylamino) pyrazole-4-carboxamide] | > 319 | > 562 | –
